In patent publication US20180140609A1, “USE OF (4-HYDROXY-2-METHYL-1,1-DIOXIDO-2H-BENZO[E][1,2]THIAZINE-3-YL)(NAPHTHALENE-2-YL) METHANONE IN THE PREVENTION AND/OR TREATMENT OF NON-ALCOHOLIC STEATOHEPATITIS” (PIERRE FABRE MEDICAMENT, priority 2015, published 2018):

Key:
Format in all cases: in vivo
[1] = biological target: human 11β-HSD type 1 (Homo sapiens, UniProt P28845); assay: Bioactivity of inguinal white adipose tissue after single oral administration in C57BL/6N mice, read as inhibition of human 11β-HSD type 1 (SPA); conditions: mouse inguinal white adipose tissue extract
Protocol: Four hours post-administration, the mice are euthanized and inguinal white adipose tissue is taken and frozen at −70° C. until the day of bioanalyses. The white adipose tissue is homogenized in liquid nitrogen and then treated with acetonitrile (1 ml of distilled water for 4 ml of acetonitrile and 200 mg of inguinal white adipose tissue) to extract soluble substances. The acetonitrile fraction is collected, then dried, and the residue is dissolved in 1 ml of DMSO for 300 mg of white adipose tissue.
Compounds tested: the same as those of Example 2.

[2] = Clinical and behavioral signs in cynomolgus monkeys during the prednisone challenge studies; conditions: study no. 2, 20, 40 and 80 mg/kg, even at 80 mg/kg
Protocol: (§1) Briefly, the study is carried out in naive adult male cynomolgus monkeys fasted overnight. The 11β-HSD type 1 inhibitor or its vehicle (0.5% methylcellulose in water) is administered via nasogastric intubation. Two hours later, a challenge with orally administered prednisone (10 mg/kg) is performed and blood samples are taken regularly for 24 hours. These samples are centrifuged to obtain plasma and immediately frozen at −70° C. until bioanalysis. Plasma levels of prednisone, prednisolone and 11β-HSD type 1 inhibitors are measured by LC-MS/MS analytical methods.
(§2) The study is carried out over a period of 10 weeks. Profiles of plasma concentration as a function of time and areas under the curve are calculated using the trapezoidal method for all parameters.

[3] = Plasma exposure in cynomolgus monkeys (prednisone challenge studies, LC-MS/MS); conditions: same dose of 20 mg/kg
Protocol: as §1, §2

Sequence of human 11β-HSD type 1 (P28845 whole entry): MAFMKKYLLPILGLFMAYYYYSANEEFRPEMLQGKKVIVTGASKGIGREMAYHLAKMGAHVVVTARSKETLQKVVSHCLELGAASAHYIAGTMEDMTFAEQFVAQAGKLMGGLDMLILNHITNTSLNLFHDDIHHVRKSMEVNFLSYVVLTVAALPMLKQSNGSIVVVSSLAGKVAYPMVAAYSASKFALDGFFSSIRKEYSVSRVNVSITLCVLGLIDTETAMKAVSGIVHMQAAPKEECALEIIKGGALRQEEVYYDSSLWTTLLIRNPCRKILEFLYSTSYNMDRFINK

CN1C(C(=O)c2ccc3ccccc3c2)=C([O-])c2ccccc2S1(=O)=O.[K+] [Compound 1K, potassium 3-(2-naphthoyl)-2-methyl-2H-benzo[e][1,2]thiazin-4-olate 1,1-dioxide]
% inhibition after 4 h ([1]; 4 h after 0.63 mg/kg oral): 21% | % inhibition after 4 h ([1]; 4 h after 2.5 mg/kg oral): 41% | % inhibition after 4 h ([1]; 4 h after 10 mg/kg oral): 70% | clinical or behavioral sign [2]: No particular clinical or behavioral sign | increase of plasma exposure versus Compound 1 [3]: ~8 fold
